Molecules are shown by their SMILES.

The assay addresses T1, Receptor-interacting serine/threonine-protein kinase 1 (Homo sapiens, UniProt Q13546).
T1 sequence (Q13546 whole entry): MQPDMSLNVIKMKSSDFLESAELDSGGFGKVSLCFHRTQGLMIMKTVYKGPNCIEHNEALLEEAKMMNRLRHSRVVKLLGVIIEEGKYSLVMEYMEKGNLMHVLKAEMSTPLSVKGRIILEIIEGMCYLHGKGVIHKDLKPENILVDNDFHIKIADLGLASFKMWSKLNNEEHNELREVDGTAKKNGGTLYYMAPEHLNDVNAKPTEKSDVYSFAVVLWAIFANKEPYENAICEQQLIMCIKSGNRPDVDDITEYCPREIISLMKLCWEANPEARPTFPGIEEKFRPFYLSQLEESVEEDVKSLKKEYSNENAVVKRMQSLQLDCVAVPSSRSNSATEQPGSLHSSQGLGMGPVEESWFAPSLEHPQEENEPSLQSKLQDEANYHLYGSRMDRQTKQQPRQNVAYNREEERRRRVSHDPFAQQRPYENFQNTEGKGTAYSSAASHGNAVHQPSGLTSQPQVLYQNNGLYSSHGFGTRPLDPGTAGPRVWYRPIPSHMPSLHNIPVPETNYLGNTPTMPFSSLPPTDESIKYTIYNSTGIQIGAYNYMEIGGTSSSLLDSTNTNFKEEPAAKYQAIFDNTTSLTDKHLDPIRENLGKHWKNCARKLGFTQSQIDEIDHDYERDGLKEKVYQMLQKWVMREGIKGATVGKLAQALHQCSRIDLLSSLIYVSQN
The assay is described as follows: Inhibition of recombinant N-terminal GST-tagged human RIPK1 (1 to 327 residues) expressed in baculovirus infected Sf9 insect cells preincubated for 40 mins followed by substrate addition and measured after 60 mins by ADP-glo luminescence assay. Background: ADP-Glo first removes unused ATP, then detects ADP through luciferase.
As to `O=C(N1CC(Sc2ccc(Br)cc2)C1)N1N=CC[C@H]1c1cc(F)cc(F)c1`, the EC50 is 5.9 nM.

With `C[C@H]1[C@@H](Oc2ccc(F)cc2)CN1C(=O)N1N=CC[C@H]1c1ccc(Cl)cc1`, the half-maximal effective concentration (EC50) is less than 5.1 nM.

`O=C(N1CC(Oc2ccccc2)C1)N1N=CC[C@H]1c1cc(F)cc(F)c1`: the EC50 is 3.8 nM.

In the case of `O=C(N1CC(Oc2ccccc2F)C1)N1N=CC[C@H]1c1cc(F)cc(F)c1`, the EC50 amounted to 3.1 nM.

With `O=C(c1ccccc1)C1CN(C(=O)N2N=CC[C@H]2c2cc(F)cc(F)c2)C1`, the EC50 amounted to 5.6 nM.

A word on the EC50: it is the concentration that produces a half-maximal response.

Values taken from ChEMBL document CHEMBL5038676, “Novel RIPK1 Inhibitors for Treating Neurodegenerative, Autoimmune, and Inflammatory Diseases” (ACS Med Chem Lett, 2022).
